{"source": "a melting point compilation (Tetko et al.; mined from patent text by program, amines drawn as free bases though some values may be those of a salt)", "data": [{"units": {"melting point": "°C"}, "values": [{"smiles": "CNCCc1cccc(N2C(=O)N(c3ccc(Cl)cc3Cl)Cc3cnc(Nc4ccccc4)nc32)c1", "melting point": "120 to 122"}, {"smiles": "Cc1c(C#N)sc2nc(-c3ccc4c(c3)OCO4)nc(N(C)CCO)c12", "melting point": "195 to 197"}, {"smiles": "CCOP(=O)(OCC)N1CCN(c2cc3c(cc2F)c(=O)c(C(=O)OCCOC)cn3C2CC2)CC1", "melting point": "138 to 141"}, {"smiles": "CC(C)(C)OC(=O)N1CCN(c2ccc([N+](=O)[O-])cc2)CC1", "melting point": "136 to 140"}, {"smiles": "CC(C)(C#N)NC(=O)Sc1ccccc1", "melting point": "152 to 155"}, {"smiles": "Cc1nc2c(c3c1[nH]c1cc(F)ccc13)C(=O)CC(C(C)C)C2", "note": "(stereo unspecified)", "melting point": "285 to 286"}, {"smiles": "COc1ccc(C(=O)N2c3ccccc3C(N3CCSc4ccccc43)=CC2C)cc1OC", "note": "(stereo unspecified)", "melting point": "166 to 168"}, {"smiles": "O=C(NO)[C@H](CNS(=O)(=O)c1ccc(OCc2ccc(F)cc2)cc1)N1CCCCC1", "melting point": 140}, {"smiles": "O=C(NC(CS)Cc1ccccc1)N1CCCCCC1", "note": "(single isomer, unassigned; (+))", "melting point": 102}, {"smiles": "CC1(C(=O)c2c[nH]c3ncc(Br)nc23)CCCC1", "melting point": "207 to 208"}, {"smiles": "O=C(O)c1cccc2c1CCc1ccc(O)cc1S2", "melting point": "219 to 221"}, {"smiles": "Cn1c(C(F)(F)F)cc(=O)n(-c2ccc(Cl)c(CO)c2)c1=O", "melting point": "192 to 194"}, {"smiles": "CNC1=NS(=O)(=O)N=C1NCCSCc1cnc(CN(C)C)s1", "melting point": "170 to 172"}, {"smiles": "CCN(CC)CCN=C=S", "melting point": "83 to 83.5"}, {"smiles": "CN(C)C1(c2ccccc2)CCC(C#N)(N2CCCC2)CC1", "note": "(stereo unspecified)", "melting point": "136 to 142"}, {"smiles": "CC1(c2ccc(F)c(S(N)(=O)=O)c2)OCCO1", "melting point": "149 to 150"}, {"smiles": "CC(C)c1cccc(C(C)C)c1NC(=O)C(NCc1ccccc1)c1ccccc1", "note": "(stereo unspecified)", "melting point": "134 to 137"}, {"smiles": "CN(N=Cc1cnc[nH]1)C(=O)c1[nH]c2ccccc2c1-c1ccccc1", "melting point": "248 to 250"}, {"smiles": "COC(=O)C(=O)Oc1cc(-n2c(=O)cc(C(F)(F)F)n(C)c2=O)c(F)cc1Cl", "melting point": "103 to 105"}, {"smiles": "C=Cc1cnc2c([N+](=O)[O-])cccc2c1", "melting point": "116 to 117"}, {"smiles": "CCc1nsc(C(=O)NC(C)C)c1C(=O)OC", "melting point": "55 to 56"}, {"smiles": "COC(=O)C(Cc1cc(OC)cc(OC)c1)c1ccc(Oc2ccc(C=C3SC(=O)NC3=O)cc2)cc1", "note": "(stereo unspecified)", "melting point": "104 to 106"}, {"smiles": "CC(C)Cn1c(CO)nc2c(N)nc3c(c21)CCCC3", "melting point": 226}, {"smiles": "CNc1nc(-c2cccc(-c3cccc(-c4ccccc4)c3)c2)c2cc(OC)c(OC)cc2n1", "melting point": "193 to 195"}, {"smiles": "O=S1(=O)CCN2CCCC(c3ccc(C(F)(F)F)cc3)C2=N1", "note": "(stereo unspecified)", "melting point": "226 to 227"}, {"smiles": "O=C(O)C1(c2ccc3c(c2)OCO3)CC(F)(F)C1(F)F", "note": "(stereo unspecified)", "melting point": "168 to 169"}, {"smiles": "Cc1nc(CC#N)c2n1-c1ccc(Cl)cc1C(c1ccccc1Cl)=NC2", "melting point": "212 to 214"}, {"smiles": "C(=Cc1ccc2c(n1)[nH]c1ccccc12)c1ccccc1", "melting point": "> 220"}, {"smiles": "COc1ccc(C2CCN(C(=O)N3CCC(Nc4ccc(CCNC[C@H](O)COc5ccc(O)cc5)cc4)CC3)CC2)cc1OC1CCCC1", "melting point": "92 to 95"}, {"smiles": "CCc1ccccc1-c1cn(C)cc(-c2cccc(C(F)(F)F)c2)c1=O", "melting point": "123 to 125"}, {"smiles": "Cc1ccc2nc3cc(C)c(=O)c(Cl)c-3sc2c1", "melting point": "193 to 195"}, {"smiles": "O=C(NCCCCC1N=C(c2ccccc2)OC1=O)OCc1ccccc1", "note": "(stereo unspecified)", "melting point": "72 to 73"}, {"smiles": "CCOC(=O)c1c(N)c(Cl)cc2c1OCO2", "melting point": "77 to 78"}, {"smiles": "CS(=O)(=O)c1ccc(-c2cnn(-c3ccc(F)cc3)c(=O)c2Cc2cccc(F)c2)cc1", "melting point": "176 to 178"}, {"smiles": "O=C(Nc1ccccc1)N1CC2CC(CN(Cc3ccc(Cl)cc3)C2)C1", "melting point": 187}, {"smiles": "CCOn1c(C(F)(F)F)nc2c([N+](=O)[O-])cc(C(F)(F)F)cc21", "melting point": "94 to 96"}, {"smiles": "NC(=O)c1nc(-c2cccc(O)c2)nc2c1[nH]c(=O)n2-c1ccccc1Cl", "melting point": "360 to 364"}, {"smiles": "Clc1nc(Cl)nc(NNc2nc(Cl)nc(Cl)n2)n1", "melting point": "> 250"}, {"smiles": "COc1ccc(C(=O)c2ccsc2)cc1", "melting point": "58 to 61"}, {"smiles": "c1ccc2c(c1)CCC1(CCOCC1)NC2", "melting point": "76 to 78"}, {"smiles": "Cc1cc(OCc2ccccc2)cc(OCCCc2ccccc2)c1C(=O)O", "melting point": "109 to 111"}, {"smiles": "CC(C)CCn1cc([N+](=O)[O-])cc1C(=O)O", "melting point": "154 to 157"}, {"smiles": "CC(C)(C)c1ccc(S(=O)(=O)/C=C/c2ccccc2)cc1", "melting point": 95}, {"smiles": "CC(C)S(=O)(=O)c1cc(OCc2ccccc2F)c2[nH]nc(Nc3nccs3)c2c1", "melting point": "268 to 269"}, {"smiles": "Cc1c(-c2ccc(O)cc2)sc(C=O)c1-c1ccc(O)c(Cl)c1", "melting point": "234 to 236"}, {"smiles": "Nc1c(N=O)c(=O)n(CC2CC2)c(=O)n1CC1CC1", "melting point": "228 to 229"}, {"smiles": "CCOc1ccc(-c2nc(CCC(=O)c3ccccc3C(=O)OC)cs2)cc1OCC", "melting point": "91.7 to 92.9"}, {"smiles": "O=c1[nH]c2ncc(-c3ccc4[nH]ncc4c3)nc2n1CC1CCCCC1", "melting point": "311 to 313"}, {"smiles": "CCOc1ccc2c(=S)cc[nH]c2c1", "melting point": "171 to 174"}, {"smiles": "CNC(=O)Nc1ccc2c(c1)C(CN1CCC(n3ccc4cc(Cl)ccc43)CC1)CC2", "note": "(stereo unspecified)", "melting point": "193 to 195"}, {"smiles": "Cc1ccc(S(=O)(=O)Oc2ccc(S(=O)(=O)c3c(-c4ccccc4)noc3C(C)C)cc2)cc1", "melting point": "148 to 149"}, {"smiles": "CCNC(=O)n1nc(Oc2c(Cl)cc(C(F)(F)F)cc2Cl)cc1CC", "melting point": "86 to 89"}, {"smiles": "CCNC(=O)N1C(=O)Cc2cc(Cl)ccc21", "melting point": "121 to 122"}, {"smiles": "CC1(C)OC(=S)Nc2ccc(-c3coc(C#N)c3)cc21", "melting point": "214 to 216"}, {"smiles": "CCn1nc(C(F)(F)F)c(CS(=O)(=O)C2=NOC(C)(CCl)C2)c1C#N", "note": "(stereo unspecified)", "melting point": "76 to 78"}, {"smiles": "CSC(=NC(=O)Cc1ccccc1)N(C)N=Cc1ccccc1", "melting point": "147 to 148"}, {"smiles": "CC(C)(C)C(O)C(Cn1cncn1)Oc1ccc(Cl)cc1", "note": "(stereo unspecified)", "melting point": 103}, {"smiles": "CCCc1nc2cccc(C(=S)OC)c2n1Cc1ccc(-c2ccccc2C#N)cc1", "melting point": "107 to 108"}, {"smiles": "CCOc1ccc2c(Nc3ccc(Cl)cc3F)c(C#N)cnc2c1", "melting point": "221 to 224"}, {"smiles": "CC(C)Cn1cnc2c(Cl)nc3ccccc3c21", "melting point": "134 to 136"}, {"smiles": "Cc1cc(C)cc(C(=O)N2CCN(C(=O)CNC3CCN(CCCc4ccccc4)CC3)C(c3ccc(Cl)c(Cl)c3)C2)c1", "note": "(racemic)", "melting point": "52 to 54"}, {"smiles": "O=C(O)c1cccc(-c2nc(-c3ccc(Cl)cc3)cs2)c1", "melting point": "265 to 266"}, {"smiles": "COc1ccc(C(CC(=O)c2ccccc2)C(=O)O)cc1", "note": "(stereo unspecified)", "melting point": "157 to 158"}, {"smiles": "N#CC(=Cc1ccccc1F)C(O)C#N", "note": "(stereo unspecified)", "melting point": 122}, {"smiles": "CCCCCC(CNC(=O)Nc1cc(C(N)=O)ccc1C(C)(C)C)c1ccc(OC)cc1OC", "note": "(stereo unspecified)", "melting point": "223 to 224"}, {"smiles": "CSC1N=C(N)C=C(Cl)N1c1c([N+](=O)[O-])cc(C(F)(F)F)c(Cl)c1[N+](=O)[O-]", "note": "(stereo unspecified)", "melting point": "171 to 175"}, {"smiles": "O=C(O)Cc1c[nH]c2nc(Nc3ccccc3)nn2c1=O", "melting point": "279 to 281"}, {"smiles": "CCCCCCCCCCCCCCOc1cccc(C(=O)N(CC(=O)O)CC(=O)O)c1", "melting point": "96 to 99"}, {"smiles": "COc1ccc(C(=O)OC2CC3C(=O)NC4(C(=O)NS(=O)(=O)C5CC5)CC4C=CCOCCCC(NC(=O)OC(C)(C)C)C(=O)N3C2)cc1", "note": "(stereo unspecified)", "melting point": "145 to 147"}, {"smiles": "CC(O)=C(C#N)C(=O)Oc1cccc(Cl)c1Cl", "melting point": "142 to 146"}, {"smiles": "Cc1ccc(S(=O)(=O)n2c(-c3cn(C)c4ccc(-c5ccncc5)cc34)cc3cccnc32)cc1", "melting point": "82 to 85"}]}]}
